How the values were obtained:
Type in all cases: in vivo
Scn1a^+/− mice [1] = assay: Accelerated rotarod test (motor function), Study II
Experimental: (§1) Here, Scn1a^+/− were randomly divided into two groups and subcutaneously injected with either CBD (100 mg/kg twice daily; n=12) or its vehicle (ethanol:Kolliphor®:0.9% saline=2:1:17; n=29) from P8 onwards until P52 or death (whichever was earlier).
Fine motor control in animals were assessed by the accelerated rotarod and static beam tests. Animals were habituated to the stationary rotarod for 2 min a day for 2 days. In the accelerated rotarod test each mouse was placed individually on a linearly accelerating rod (4-40 rpm over 5 minutes; LE8500, Letica Scientific Instruments, UK) and average latency to fall from the rod (maximum 300 seconds) was calculated from 3 consecutive trials (2 min interval between trials).
(§2) In Study II, the data were analysed in GraphPad Prism 6 software. Survival curves of Scn1a^+/− vehicle-treated and Scn1a^+/− CBD-treated group were compared using a Mantel-Cox test. […] Data obtained from rotarod, gait, social interaction (active interaction), EPM, sucrose preference, RAM (RME) tests were normally distributed and the differences between the three groups were analysed by one-way ANOVA. […] Parametric data are presented in scattered dot plot in the figures and are expressed as mean±SEM. Non-parametric data are presented in box plot in the figures and are expressed as median, min to max, and interquartile range (IQR). […]

Scn1a^+/− mice [2] = assay: Static beam test (motor function), Study II; conditions: CBD 100 mg/kg s.c. twice daily
Experimental: as §1
The static beam task was further employed to analyse balance and coordination (Sedy, Urdzikova, Jendelova, & Sykova, 2008), where the animals were required to walk along a cylindrical elevated beam (100 cm long, 0.9 cm diameter and 50 cm height from floor) and enter a dark enclosure at the beam end. The mice were habituated to the task for three consecutive days before the test day. […] The test was video monitored (Sony DCR-SX21E) and blinded offline analysis was conducted (Observer XT 12, Noldus, The Netherlands) to evaluate the average number of foot slips made from two consecutive trials.
as §2, with “software.” for “software. Survival curves of Scn1a^+/− vehicle-treated and Scn1a^+/− CBD-treated group were compared using a Mantel-Cox test.”

Scn1a^+/− mice [3] = assay: Social interaction test, Study II; conditions: CBD 100 mg/kg s.c. twice daily
Experimental: as §1
The social interaction test was conducted in the home cage of test mouse to assess the social behaviour of the animals (Sato, Mizuguchi, & Ikeda, 2013). On test day, cage mate(s) were removed from the home cage of the test mouse and the mouse remained in isolation for 15 minutes. A novel wild type mouse of same strain, same sex and similar weight to the test mouse was then introduced to the home cage of the test mouse. Activity was video recorded (Sony DCR-SX21E) for 10 minutes and the obtained video files were blinded at the end of all experiments. Time spent in active interactions (e.g. close following, sniffing, allogrooming/social grooming and mounting) and number of rearing (lifting the front paws on the air) occasions were coded offline using Observer XT 12 (Noldus, Netherlands). Aggressive behaviours were not considered as social interactions and were not coded. In this test, a reduced social interaction is considered as autistic-like behaviour (Sato et al., 2013), while increased rearing occasions is sign of defensive escapes (Kaplan et al., 2017).
as §2

Scn1a^+/− mice [4] = assay: Elevated plus maze (EPM) test, anxiety-like behaviour, Study II; conditions: CBD 100 mg/kg s.c. twice daily
Experimental: as §1
The elevated plus maze (EPM) test was performed to assess the level of anxiety in animals (M. Chen et al., 2017). The wooden test apparatus consists of two closed arms (50×10×40 cm) and two open arms (50×10 cm) connected via a central platform (10×10 cm) and raised at a height of 50 cm above the floor. Each animal was placed on the central platform facing towards an open arm. Activity was video recorded (Swann SRDVR-16440H, UK) for 5 minutes. The video files were blinded and coded offline at the end of all experiments using Observer XT 12 (Noldus, Netherlands). Time spent on open arms was inversely related to the level of anxiety.
as §2, with “software.” for “software. Survival curves of Scn1a^+/− vehicle-treated and Scn1a^+/− CBD-treated group were compared using a Mantel-Cox test.”

## C=C(C)[C@@H]1CCC(C)=C[C@H]1c1c(O)cc(CCCCC)cc1O [CBD, cannabidiol]
Scn1a^+/− mice [1]; WT vehicle, Scn1a^+/− vehicle, Scn1a^+/− CBD (100 mg/kg s.c. twice daily), p=0.44, FIG. 3A
  time spent on rod, accelerating rotarod, between the groups: no significant difference
Scn1a^+/− mice [1]; conclusion from rotarod and static beam tests in Scn1a^+/− mice, chronic CBD 100 mg/kg s.c. twice daily
  effects on motor function (conclusion): no detrimental effects on motor function
Scn1a^+/− mice [2]; p=0.23, FIG. 3B
  number of foot slips, Scn1a^+/− CBD-treated versus Scn1a^+/− vehicle-treated: no significant difference
Scn1a^+/− mice [2]; p=0.48
  number of foot slips, Scn1a^+/− CBD-treated versus WT vehicle-treated: no significant difference
Scn1a^+/− mice [3]; p=0.55
  rearing events, Scn1a^+/− CBD-treated versus WT vehicle-treated: No difference
Scn1a^+/− mice [3]; statement describes vehicle group relative to CBD group (n=10), p=0.0003, FIG. 4A
  time spent on active interaction, Scn1a^+/− vehicle-treated compared to Scn1a^+/− CBD-treated: significantly less time
Scn1a^+/− mice [3]; statement describes vehicle group relative to CBD group, p=0.0003, FIG. 4B
  number of rearing occasions, Scn1a^+/− vehicle-treated compared to Scn1a^+/− CBD-treated: significantly higher number of rearing occasions
Scn1a^+/− mice [4]; p=0.73
  time spent on open arms (EPM), Scn1a^+/− CBD-treated versus WT vehicle-treated: not different
Scn1a^+/− mice [4]; statement describes vehicle group relative to CBD group (n=10), p=0.02, FIG. 4C
  time spent on open arms (EPM), Scn1a^+/− vehicle-treated compared to Scn1a^+/− CBD-treated: significantly less time on the open arms
